Measurements from ChEMBL document CHEMBL3616426 (Eur J Med Chem, 2015).
Active and inactive are the calls of the source. The rule behind the calls is not given here.

Columns and labels:
Rattus norvegicus [1] = assay: Antiosteoporotic activity in ovariectomized Sprague-Dawley rat assessed as trabecular separation at 10 ug/kg, po qd at 6th week by micro-CT analysis (reference value: 0.116 +/- 0.010 millimeter); type: functional, Trabecula
Rattus norvegicus [2] = assay: Antiosteoporotic activity in ovariectomized Sprague-Dawley rat assessed as trabecular thickness at 1 ug/kg, po qd at 6th week by micro-CT analysis (reference value: 0.086 +/- 0.0069 millimeter); type: functional, Trabecula
Rattus norvegicus [3] = assay: Antiosteoporotic activity in ovariectomized Sprague-Dawley rat assessed as serum osteocalcin level at 10 ug/kg, po qd at 18th week by enzyme immunoassay (reference value: 1118.9 +/- 37.77 ng/ml); type: functional
Rattus norvegicus [4] = assay: Antiosteoporotic activity in ovariectomized Sprague-Dawley rat assessed as trabecular thickness at 1 ug/kg, po qd at 12th week by micro-CT analysis (reference value: 0.070 +/- 0.0063 millimeter); type: functional, Trabecula
Rattus norvegicus [5] = assay: Antiosteoporotic activity in ovariectomized Sprague-Dawley rat assessed as bone mineral density recovery at 10 ug/kg, po qd measured at 18th week by micro-CT analysis relative to SHAM control; type: functional
Rattus norvegicus [6] = assay: Antiosteoporotic activity in ovariectomized Sprague-Dawley rat assessed as trabecular thickness at 10 ug/kg, po qd at 6th week by micro-CT analysis (reference value: 0.086 +/- 0.0069 millimeter); type: functional, Trabecula
Rattus norvegicus [7] = assay: Antiosteoporotic activity in ovariectomized Sprague-Dawley rat assessed as prevention of bone mineral density loss at 1 to 3 ug/kg, po qd measured at 6th to 18th week by micro-CT analysis relative to OVX rat; type: functional, organism-based
Rattus norvegicus [8] = assay: Antiosteoporotic activity in ovariectomized Sprague-Dawley rat assessed as trabecular separation at 1 ug/kg, po qd at 18th week by micro-CT analysis (reference value: 0.234 +/- 0.021 millimeter); type: functional, Trabecula
Rattus norvegicus [9] = assay: Antiosteoporotic activity in ovariectomized Sprague-Dawley rat assessed as bone volume /tissue volume at 10 ug/kg, po qd at 18th week by micro-CT analysis (reference value: 27.36 +/- 1.99%); type: functional
Rattus norvegicus [10] = assay: Antiosteoporotic activity in ovariectomized Sprague-Dawley rat assessed as bone volume /tissue volume at 10 ug/kg, po qd at 12th week by micro-CT analysis (reference value: 31.61 +/- 2.39%); type: functional
Rattus norvegicus [11] = assay: Antiosteoporotic activity in ovariectomized Sprague-Dawley rat assessed as bone volume /tissue volume at 1 ug/kg, po qd at 12th week by micro-CT analysis (reference value: 31.61 +/- 2.39%); type: functional
Rattus norvegicus [12] = assay: Antiosteoporotic activity in ovariectomized Sprague-Dawley rat assessed as decrease in serum osteocalcin level at 3 ug/kg, po qd at 18th week by enzyme immunoassay relative to SHAM control; type: functional, organism-based
Rattus norvegicus [13] = assay: Antiosteoporotic activity in ovariectomized Sprague-Dawley rat assessed as trabecular thickness at 10 ug/kg, po qd at 18th week by micro-CT analysis (reference value: 0.103 +/- 0.0044 millimeter); type: functional, Trabecula
Rattus norvegicus [14] = assay: Antiosteoporotic activity in ovariectomized Sprague-Dawley rat assessed as trabecular separation at 10 ug/kg, po qd at 12th week by micro-CT analysis (reference value: 0.146 +/- 0.010 millimeter); type: functional, Trabecula
Rattus norvegicus [15] = assay: Antiosteoporotic activity in ovariectomized Sprague-Dawley rat assessed as trabecular thickness recovery at 10 ug/kg, po qd measured at 18th week by micro-CT analysis relative to SHAM control; type: functional, Trabecula
Rattus norvegicus [16] = assay: Antiosteoporotic activity in ovariectomized Sprague-Dawley rat assessed as trabecular separation recovery at 10 ug/kg, po qd measured at 18th week by micro-CT analysis relative to SHAM control; type: functional, organism-based; conditions: Trabecula
Rattus norvegicus [17] = assay: Antiosteoporotic activity in ovariectomized Sprague-Dawley rat assessed as trabecular separation at 3 ug/kg, po qd at 6th week by micro-CT analysis (reference value: 0.116 +/- 0.010 millimeter); type: functional, Trabecula
[18] = n-octanol-water partition coefficient, log P of the compound after 24 hrs by HPLC analysis; type: physicochemical
Rattus norvegicus [19] = assay: Antiosteoporotic activity in ovariectomized Sprague-Dawley rat assessed as bone volume /tissue volume recovery at 10 ug/kg, po qd measured at 18th week by micro-CT analysis relative to SHAM control; type: functional
Rattus norvegicus [20] = assay: Antiosteoporotic activity in ovariectomized Sprague-Dawley rat assessed as trabecular separation at 3 ug/kg, po qd at 12th week by micro-CT analysis (reference value: 0.146 +/- 0.010 millimeter); type: functional, Trabecula
Mus musculus = assay: Acute toxicity in ICR mouse assessed as survival at 5000 ug/kg, po after 2 weeks; type: organism-based; conditions: in vivo, 5 mg/kg, 336 h
Rattus norvegicus [21] = assay: Antiosteoporotic activity in ovariectomized Sprague-Dawley rat assessed as trabecular separation at 1 ug/kg, po qd at 12th week by micro-CT analysis (reference value: 0.146 +/- 0.010 millimeter); type: functional, Trabecula
Rattus norvegicus [22] = assay: Antiosteoporotic activity in ovariectomized Sprague-Dawley rat assessed as decrease in serum osteocalcin level at 10 ug/kg, po qd at 18th week by enzyme immunoassay relative to SHAM control; type: functional, organism-based
Rattus norvegicus [23] = assay: Antiosteoporotic activity in ovariectomized Sprague-Dawley rat assessed as trabecular thickness at 3 ug/kg, po qd at 6th week by micro-CT analysis (reference value: 0.086 +/- 0.0069 millimeter); type: functional, Trabecula
Rattus norvegicus [24] = assay: Antiosteoporotic activity in ovariectomized Sprague-Dawley rat assessed as trabecular separation at 3 ug/kg, po qd at 18th week by micro-CT analysis (reference value: 0.234 +/- 0.021 millimeter); type: functional, Trabecula
Rattus norvegicus [25] = assay: Antiosteoporotic activity in ovariectomized Sprague-Dawley rat assessed as bone volume /tissue volume at 3 ug/kg, po qd at 12th week by micro-CT analysis (reference value: 31.61 +/- 2.39%); type: functional
Rattus norvegicus [26] = assay: Antiosteoporotic activity in ovariectomized Sprague-Dawley rat assessed as serum osteocalcin level at 3 ug/kg, po qd at 12th week by enzyme immunoassay (reference value: 1055.8 +/- 14 ng/ml); type: functional
Rattus norvegicus [27] = assay: Antiosteoporotic activity in ovariectomized Sprague-Dawley rat assessed as trabecular separation at 1 ug/kg, po qd at 6th week by micro-CT analysis (reference value: 0.116 +/- 0.010 millimeter); type: functional, Trabecula
Rattus norvegicus [28] = assay: Antiosteoporotic activity in ovariectomized Sprague-Dawley rat assessed as bone volume /tissue volume at 10 ug/kg, po qd at 6th week by micro-CT analysis (reference value: 41.33 +/- 5.04%); type: functional
Rattus norvegicus [29] = assay: Antiosteoporotic activity in ovariectomized Sprague-Dawley rat assessed as bone volume /tissue volume at 3 ug/kg, po qd at 6th week by micro-CT analysis (reference value: 41.33 +/- 5.04%); type: functional
Rattus norvegicus [30] = assay: Antiosteoporotic activity in ovariectomized Sprague-Dawley rat assessed as trabecular thickness at 10 ug/kg, po qd at 12th week by micro-CT analysis (reference value: 0.070 +/- 0.0063 millimeter); type: functional, Trabecula

Compound `O=C1c2cc(O)cc(O)c2[C@@H](c2ccc(O)cc2)[C@@H]1c1cc(O)cc(O)c1` [ISOPAUCIFLORAL F] has an Activity (Rattus norvegicus [1]) of 0.118 mm, an Activity (Rattus norvegicus [2]) of 0.083 mm and an Activity (Rattus norvegicus [3]) of 702.2 ng/mL. The Activity (Rattus norvegicus [4]) was 0.086 mm, the Activity (Rattus norvegicus [5]) was 90% and the Activity (Rattus norvegicus [6]) was 0.082 mm. The Activity (Rattus norvegicus [7]) was “inactive”, the Activity (Rattus norvegicus [8]) was 0.183 mm and the Activity (Rattus norvegicus [9]) was 66.42%. For the same compound, the Activity (Rattus norvegicus [10]) was 38.43%, the Activity (Rattus norvegicus [11]) was 31.46% and the Activity (Rattus norvegicus [12]) was “Active”. For the same compound, the Activity (Rattus norvegicus [13]) was 0.212 mm, the Activity (Rattus norvegicus [14]) was 0.138 mm and the Activity (Rattus norvegicus [15]) was 78%. For the same compound, the Activity (Rattus norvegicus [16]) was “inactive”, the Activity (Rattus norvegicus [17]) was 0.097 mm and the logP at 24 h [18] was 1.34. The Activity (Rattus norvegicus [19]) was 78%, the Activity (Rattus norvegicus [20]) was 0.173 mm and the Activity (Mus musculus) was “Non-toxic”. For the same compound, the Activity (Rattus norvegicus [21]) was 0.18 mm, the Activity (Rattus norvegicus [22]) was “Active” and the Activity (Rattus norvegicus [23]) was 0.092 mm. For the same compound, the Activity (Rattus norvegicus [24]) was 0.183 mm, the Activity (Rattus norvegicus [25]) was 41.01% and the Activity (Rattus norvegicus [26]) was 1109.6 ng/mL. The Activity (Rattus norvegicus [27]) was 0.104 mm, the Activity (Rattus norvegicus [28]) was 40.25% and the Activity (Rattus norvegicus [29]) was 52.56%. For the same compound, the Activity (Rattus norvegicus [30]) was 0.087 mm.
